# Measured values as given in publication PMC6718478, “A Comprehensive Antimicrobial Activity Evaluation of the Recombinant Microcin J25 Against the Foodborne Pathogens Salmonella and E. coli O157:H7 by Using a Matrix of Conditions” (Frontiers in Microbiology, 2019).
# Positions of bridges follow the written chain, without caps; N, C: chain ends. Residues, ends and D or L forms follow the SMILES beside them.
# Tests used:
# [1] = tested on: IPEC-J2 cells; assay: Salmonella invasion of IPEC-J2 cell monolayers; type: cell-based; settings: 6 h with recombinant MccJ25, Salmonella for 2 h; plate counts, n = 9
# Protocol: FIGURE S1 | Protective effects of recombinant MccJ25 against Salmonella invasion of IPEC-J2 cell monolayers. IPEC-J2 cells were cultured with or without recombinant MccJ25 for 6 h in the absence or presence of Salmonella for 2 h. The invasion of Salmonella in the IPEC-J2 cells was determined. Salmonella (mean CFU/ml ± SEMs) were determined by plate counts, and determined from three individual experiments. n = 9. Different superscript lowercase letters within each group indicate significant differences (P < 0.05).
# [2] = tested on: S. Pullorum; assay: Live/Dead BacLight viability assay; type: cell-based, Salmonella Pullorum; settings: at the MIC level, 2 h at 37°C, 5 × 10^4 CFU/mL in LB; fluorescence microscopy
# Protocol: (§1) A Live/Dead BacLight Bacterial Viability Kit 7 (Molecular Probes, Inc., Eugene) was used to test bacterial viability. Briefly, 5 × 10^4 CFU/mL S. Pullorum, S. Typhimurium, and E. coli O157:H7 were inoculated into 1 mL of LB containing recombinant MccJ25 at the MIC level specific for each pathogen. Bacterial cultures were incubated at 37°C for 2 h and then incubated in the dark at ambient temperature with SYTO 9 and propidium iodide for 15 min. Bacteria were observed using a fluorescence microscope (EVOS XL Cell Imaging System).
# [3] = tested on: S. Pullorum; assay: pH stability, inhibition zone read-out; type: physicochemical, Salmonella Pullorum; settings: pH 2.0 to 9.0 for 2 h; 150 μL of 1 × MIC; Oxford cup inhibition zone on LB agar, overnight 37°C; three replicate experiments
# Protocol: Assays of the antibacterial activity of recombinant MccJ25 at different temperatures (25, 37, 45, 55, 65, 75, 85, and 95°C for 20 min) and different pH values (pH 2.0, 3.0, 4.0, 5.0, 6.0, 7.0, 8.0, and 9.0 for 2 h) were performed. The assays were conducted as described previously ([Chen et al., 2009]; [Meng et al., 2019]), with slight modifications. LB agar inoculated with the indicator bacteria S. Pullorum (approximately 10^5 viable cells per mL) was poured over plates fitted with Oxford cups to make wells. 150 μL of 1 × MIC final concentration of recombinant MccJ25 samples previously treated under various conditions were added to the wells. The agar overlays were incubated overnight at 37°C, and the inhibition zones were recorded.
# [4] = tested on: S. Typhimurium; assay: Antimicrobial activity in different growth phases, viable plate counting; type: cell-based, Salmonella Typhimurium; settings: LB, plate counts, n = 6; for time within which bacteria were killed: early and late-log phase cells
# Protocol: The effect of growth phase on the anti-Salmonella and -E. coli O157:H7 activity of recombinant MccJ25 was determined by the viable plate counting method, as described previously ([Ma et al., 2016]; [Fan et al., 2017]), with minor modifications. Cultures of the strains in the early-log phase, late-log phase and stationary phase were washed, concentrated and diluted with sterilized phosphate-buffered saline (PBS) to approximately 10^7 CFU/mL. Then, 1 mL was incubated individually in 9 mL of PBS to reach an approximate 10^6 CFU/mL final concentration. The bacterial cells were then inoculated into 5 mL of LB containing different concentrations of MccJ25 (0, 1 × MIC, 2 × MIC, and 4 × MIC). At 0, 12, 24, and 48 h post incubation, the cultures (0.1 mL) were serially diluted with PBS and plated on LB and TSA agar. The plates were incubated at 37°C overnight to count colony. Colonies were counted to determine CFU/mL. The experiment was conducted with two replicates in three independent trials.
# [5] = tested on: S. Pullorum; assay: Thermal stability, inhibition zone read-out; type: physicochemical, Salmonella Pullorum; settings: temperatures as high as 121°C for 20 min; 150 μL of 1 × MIC; Oxford cup inhibition zone on LB agar, overnight 37°C; three replicate experiments
# Protocol: […] The assays were conducted as described previously ([Chen et al., 2009]; [Meng et al., 2019]), with slight modifications. LB agar inoculated with the indicator bacteria S. Pullorum (approximately 10^5 viable cells per mL) was poured over plates fitted with Oxford cups to make wells. 150 μL of 1 × MIC final concentration of recombinant MccJ25 samples previously treated under various conditions were added to the wells. The agar overlays were incubated overnight at 37°C, and the inhibition zones were recorded.
# [6] = tested on: S. Pullorum CVCC1791; assay: Antimicrobial activity (killing) curves; type: cell-based, Salmonella Pullorum
# Protocol: To further address the activity of recombinant MccJ25, antimicrobial activity curves and Live/Dead viability assay were performed. A single colony of S. Pullorum CVCC1791, S. Typhimurium ATCC14082, and E. coli O157:H7 was inoculated into 5 mL of LB. The culture was then incubated at 37°C with shaking at 200 rpm overnight. The following day, the culture was diluted 1:100 in fresh LB and again incubated at 37°C with shaking at 200 rpm. For antimicrobial activity, the bacteria were grown until they reached log phase. Approximately 5 × 10^4 CFU/mL bacteria were inoculated into 2 mL of LB containing different concentrations of the recombinant MccJ25 (0, 1 × MIC, 2 × MIC, and 4 × MIC). […] The plates were incubated at 37°C overnight to count colony. Colonies were counted to determine CFU/mL. The experiment was conducted with two replicates in three independent trials.
# [7] = tested on: E. coli O157:H7; assay: Live/Dead BacLight viability assay; type: cell-based, Escherichia coli; settings: at the MIC level, 2 h at 37°C, 5 × 10^4 CFU/mL in LB; fluorescence microscopy
# Protocol: as §1
# [8] = tested on: S. Pullorum; assay: TEM of morphology and intracellular alteration; type: cell-based, Salmonella Pullorum
# Protocol: For TEM sample preparation, (1) two milliliters of 2 × 10^6 cells of S. Pullorum broth cultured in the absence or presence of 1×, 2× and 4× MIC of the recombinant MccJ25 were incubated and collected at 1 h. (2) After that, approximately 2 × 10^6 S. Pullorum cells were incubated at 37°C for […] with the recombinant MccJ25 at 2 × MIC for 2, 3, and 4 h. They were then centrifuged at 5,000 × g for 5 min. Pretreatment of bacterial samples was conducted in the same way as the SEM treatment. Finally, the samples were placed in capsules containing embedding medium and heated at 70°C for approximately 9 h. Specimens were stained with uranyl acetate and alkaline lead citrate for 15 min. They were then observed by TEM (Model JEM-1230, JEOL, Japan).
structure (smiles),measurement,setting,value
"CC[C@H](C)[C@H](NC(=O)CNC(=O)[C@@H](NC(=O)[C@H](Cc1ccccc1)NC(=O)[C@H](Cc1ccc(O)cc1)NC(=O)[C@@H]1CCC(=O)NCC(=O)NCC(=O)N[C@@H](C)C(=O)NCC(=O)N[C@@H](Cc2c[nH]cn2)C(=O)N[C@@H](C(C)C)C(=O)N2CCC[C@H]2C(=O)N1)C(C)C)C(=O)NCC(=O)N[C@H](C(=O)N1CCC[C@H]1C(=O)N[C@H](C(=O)N[C@@H](CO)C(=O)N[C@@H](Cc1ccccc1)C(=O)N[C@@H](Cc1ccc(O)cc1)C(=O)NCC(=O)O)[C@@H](C)CC)[C@@H](C)O [recombinant MccJ25, microcin J25] (GGAGHVPEYFVGIGTPISFYG-OH; lactam N-8 (inferred); C-terminus assumed)",S. Pullorum invasion of IPEC-J2 cells,[1],inhibited S. Pullorum invasion
same,"bactericidal activity, Live/Dead staining (SYTO 9 / propidium iodide)",[2],excellent bactericidal activity
same,effect of pH on activity against S. Pullorum (pH stability),[3],no effect
same,time within which bacteria were killed,[4]; 2 × MIC,≤ 48 h
same,time within which bacteria were killed,[4]; 4 × MIC,≤ 24 h
same,time to reduction to non-detectable levels,"[4]; stationary phase cells, 4 × MIC",48 h
same,influence of temperature on activity against S. Pullorum (thermal stability),[5],no influence
same,regrowth in killing curve,"[6]; 1 × MIC, after 8 h of incubation",did not exhibit regrowth
same,incubation time after which all bacteria were killed (killing curve),"[6]; 1 × MIC, log phase, ~5 × 10^4 CFU/mL in LB, 37°C, plate counts, n = 6",4 h
same,incubation time after which the pathogen was eliminated (killing curve),"[6]; 4 × MIC, log phase, ~5 × 10^4 CFU/mL in LB, 37°C, plate counts at 0, 2, 4, 6 h, n = 6",6 h
same,"bactericidal activity, Live/Dead staining (SYTO 9 / propidium iodide)",[7],excellent bactericidal activity
same,cytoplasmic membrane integrity by TEM,"[8]; 1, 2, or 4 × MIC for 1 h, 2 × 10^6 cells",significantly disrupted the membrane
same,morphology and intracellular alteration by TEM,"[8]; 2 × MIC for 2, 3, and 4 h","deformed small septa, invisible cytoplasmic membranes, heterogeneous electron density, electron-light regions and thinned cell walls"
